Test results from patent publication US8883833B2, “Substituted benzoazole PDE4 inhibitors for treating inflammatory, cardiovascular and CNS disorders” (Decode Genetics EHF, priority 2007, dated 2014).

Key:
human PDE4D isozyme = human PDE4D isozyme (Homo sapiens, UniProt Q08499); assay: IC50 for human PDE4D isozyme (Table 4); assay type: biochemical; settings: read-out: IC50 for human PDE4D isozyme, hPDE4D
Procedure: (§1) In-vitro assay for PDE4 enzymes. The in-vitro activity of PDE4 enzymes and the in-vitro potency of therapeutic agents described in the present invention was measured using a real-time, enzyme-coupled spectrophotometric assay. By using three different coupling enzymes, the product of the PDE4 reaction is coupled to the oxidation of the reduced form β-nicotinamide adenine dinucleotide (NADH), which dissipation can be monitored spectrophotmetrically at […]. Assay description. Buffer A containing 50 mM Tris, pH 8.0, 16 mM MgCl2 and 80 mM KCl is prepared and stored at room temperature. Buffer B containing 50 mM Tris, pH 8.0 is prepared and stored at toom temperature. Stock solutions of the following reagents are prepared in Buffer B and stored at −20° C.: Adenosine-5′-triphosphate (ATP), cyclic adenosine-5′-monophosphate (cAMP), phosphoenolpyruvate (PEP) and NADH. An assay mix is prepared by mixing Buffer A, […] (TCEP), ATP, PEP, NADH, myokinase (MK), pyruvate kinase (PK), lactate dehydroganese (LDH) and PDE4 to a final volume of 20 mL, which is enough for a single 96-well assay plate. Assay mix (180 μL) and test article (10 μL) in 1:1 DMSO/H2O mixture is pre-incubated at room temperature for 10 min. The enzymatic reaction is initiated by addition of cAMP (10 μL). Final concentration of all components in the assay (200 μL/well) are as follows: 10 mM MgCl2, 50 mM KCl, 5 mM TCEP, 2.5% DMSO, 0.4 mM NADH, 1 mM PEP, 0.04 mM ATP, 5 units MK, 1 unit PK, 1 unit LDH and appropriate amount of PDE4. Reaction progress curves are monitored in a plate reader capable of measuring light absorbance at 340 nm. A decrease in light absorbance at 340 nm is due to oxidation of NADH. Positive controls containing no test article and negative controls containing no test article and no cAMP are included on every assay plate. Reaction rates are determined from the slopes of the linear portions of the progress curves. All data is percent normalized with respect to controls and presented as percent inhibition.

human PDE4B isozyme = human PDE4B isozyme (Homo sapiens, UniProt Q07343); assay: IC50 for human PDE4B isozyme (Table 5); assay type: biochemical; settings: read-out: IC50 for human PDE4B isozyme, hPDE4B
Chain of human PDE4B isozyme (Q07343 whole entry): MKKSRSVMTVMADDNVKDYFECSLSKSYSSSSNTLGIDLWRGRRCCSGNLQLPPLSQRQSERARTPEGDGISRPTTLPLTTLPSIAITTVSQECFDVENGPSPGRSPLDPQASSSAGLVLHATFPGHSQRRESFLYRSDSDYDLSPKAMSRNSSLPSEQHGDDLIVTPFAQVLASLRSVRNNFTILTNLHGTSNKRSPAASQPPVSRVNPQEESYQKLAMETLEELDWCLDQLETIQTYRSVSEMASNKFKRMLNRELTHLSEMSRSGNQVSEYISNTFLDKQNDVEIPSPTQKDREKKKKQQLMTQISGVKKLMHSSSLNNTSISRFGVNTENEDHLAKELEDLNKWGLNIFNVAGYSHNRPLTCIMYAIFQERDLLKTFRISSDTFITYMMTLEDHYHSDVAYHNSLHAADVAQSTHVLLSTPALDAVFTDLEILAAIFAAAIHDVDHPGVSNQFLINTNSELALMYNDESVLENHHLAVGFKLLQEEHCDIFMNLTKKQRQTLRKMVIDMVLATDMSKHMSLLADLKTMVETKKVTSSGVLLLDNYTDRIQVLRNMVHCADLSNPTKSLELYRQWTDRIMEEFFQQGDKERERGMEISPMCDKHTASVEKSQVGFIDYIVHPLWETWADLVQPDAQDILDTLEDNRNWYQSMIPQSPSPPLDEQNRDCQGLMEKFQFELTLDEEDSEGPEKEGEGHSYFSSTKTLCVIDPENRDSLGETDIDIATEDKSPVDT
Procedure: as §1

Chain of human PDE4D isozyme (Q08499 whole entry): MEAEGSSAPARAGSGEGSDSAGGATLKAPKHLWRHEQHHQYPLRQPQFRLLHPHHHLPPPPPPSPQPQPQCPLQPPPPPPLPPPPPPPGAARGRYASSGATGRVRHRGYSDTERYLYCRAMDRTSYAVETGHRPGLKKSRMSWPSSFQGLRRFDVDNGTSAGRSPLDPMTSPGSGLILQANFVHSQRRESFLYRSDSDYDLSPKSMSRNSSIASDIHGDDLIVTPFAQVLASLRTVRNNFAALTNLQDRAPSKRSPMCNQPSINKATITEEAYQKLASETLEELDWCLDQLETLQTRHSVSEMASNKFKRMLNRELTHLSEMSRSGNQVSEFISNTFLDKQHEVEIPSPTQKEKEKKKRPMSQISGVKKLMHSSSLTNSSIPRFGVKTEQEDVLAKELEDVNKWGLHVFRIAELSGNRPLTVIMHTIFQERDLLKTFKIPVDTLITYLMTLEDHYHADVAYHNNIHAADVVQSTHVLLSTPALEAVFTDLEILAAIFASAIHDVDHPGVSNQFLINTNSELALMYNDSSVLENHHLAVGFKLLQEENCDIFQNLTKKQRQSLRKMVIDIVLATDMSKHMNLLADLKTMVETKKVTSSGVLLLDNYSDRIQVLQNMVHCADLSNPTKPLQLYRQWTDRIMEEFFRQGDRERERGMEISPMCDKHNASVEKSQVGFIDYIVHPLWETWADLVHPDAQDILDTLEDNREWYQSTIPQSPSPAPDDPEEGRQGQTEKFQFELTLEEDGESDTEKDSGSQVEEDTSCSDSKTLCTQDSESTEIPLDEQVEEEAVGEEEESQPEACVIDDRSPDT

| IC50 (human PDE4D isozyme) [µM] | IC50 (human PDE4B isozyme) [µM] | Compound |
| --- | --- | --- |
| < 5 | < 5 | CN(C)c1ccc(Cc2cc3scnc3c(-c3cccc(Cl)c3)c2F)cn1 [BA-55, {5-[4-(3-chloro-phenyl)-5-fluoro-benzothiazol-6-ylmethyl]-pyridin-2-yl}-dimethyl-amine] |
| < 5 | < 5 | NC(=O)[C@@H]1CCN1c1ccc(Cc2cc3scnc3c(-c3cccc(Cl)c3)c2F)cn1 [BA-74, (S)-1-{5-[4-(3-chloro-phenyl)-5-fluoro-benzothiazol-6-ylmethyl]-pyridin-2-yl}-azetidine-2-carboxylic acid amide] |
| < 5 | < 5 | CCNC(=O)Nc1ccc(Cc2cc3scnc3c(-c3cccc(C#N)c3)c2F)cn1 [BA-53, 1-{5-[4-(3-cyano-phenyl)-5-fluoro-benzothiazol-6-ylmethyl]-pyridin-2-yl}-3-ethyl-urea] |
| < 5 | 20 to 40 | CCNC(=O)N1CCN(Cc2cc3scnc3c(-c3cccc(Cl)c3)c2F)CC1 [BA-52, 4-[4-(3-chloro-phenyl)-5-fluoro-benzothiazol-6-ylmethyl]-piperazine-1-carboxylic acid ethylamide] |
| < 5 | < 5 | CCNC(=O)N1CCN(Cc2cc3scnc3c(-c3cccc(Cl)c3)c2F)C(=O)C1 [BA-72, 4-[4-(3-Chloro-phenyl)-5-fluoro-benzothiazol-6-ylmethyl]-3-oxo-piperazine-1-carboxylic acid ethylamide] |
| < 5 | < 5 | N#Cc1ccc(Cc2cc3scnc3c(-c3cccc(Cl)c3)c2F)cn1 [BA-60, 5-[4-(3-chloro-phenyl)-5-fluoro-benzothiazol-6-ylmethyl]-pyridine-2-carbonitrile] |

Further lines, the compound ahead of its results:

| Compound | IC50 (human PDE4D isozyme) [µM] | IC50 (human PDE4B isozyme) [µM] |
| --- | --- | --- |
| Fc1c(CN2CCOCC2)cc2scnc2c1-c1cccc(Cl)c1 [BA-43, 4-(3-Chloro-phenyl)-5-fluoro-6-morpholin-4-ylmethyl-benzothiazole] | < 5 | < 5 |
| CCOC(=O)N1CCN(Cc2cc3scnc3c(-c3cccc(Cl)c3)c2F)CC1 [BA-49, 4-[4-(3-Chloro-phenyl)-5-fluoro-benzothiazol-6-ylmethyl]-piperazine-1-carboxylic acid ethyl ester] | < 5 | < 5 |
| NC(=O)Nc1ccc(Cc2cc(-c3cccc(Cl)c3)c3ncsc3c2)cc1 [BA-28, {4-[4-(3-Chloro-phenyl)-benzothiazol-6-ylmethyl]-phenyl}-urea] | < 5 | < 5 |
| Nc1nc2c(-c3cccc([N+](=O)[O-])c3)cc(Cn3ccnc3)cc2s1 [BA-02, 6-imidazol-1-ylmethyl-4-(3-nitro-phenyl)-benzothiazol-2-ylamine] | < 5 | < 5 |
| CCOC(=O)NC1CCN(Cc2cc3scnc3c(-c3cccc(Cl)c3)c2F)CC1 [BA-45, {1-[4-(3-Chloro-phenyl)-5-fluoro-benzothiazol-6-ylmethyl]-piperidin-4-yl}-carbamic acid ethyl ester] | < 5 | 5 to 20 |
| Nc1ccc(Cc2cc(-c3cccc(Cl)c3)c3nc(N)oc3c2)cc1 [BA-32, 6-(4-aminobenzyl)-4-(3-chlorophenyl)-1,3-benzoxazol-2-amine] | < 5 | < 5 |
| Nc1nc2c(-c3ccc4nonc4c3)cc(Cc3ccc(F)cc3)cc2s1 [BA-03, 4-Benzol[1,2,5]oxadiazol-5-yl-6-(4-fluoro-benzyl)-benzothiazol-2-yl amine] | < 5 | < 5 |
| Nc1ccc(Cc2cc(-c3cccc(Cl)c3)c3ncsc3c2)cc1 [BA-25, 4-[4-(3-Chloro-phenyl)-benzothiazol-6-ylmethyl]-phenylamine] | < 5 | < 5 |
| CS(=O)(=O)Nc1ccc(Cc2cc(-c3cccc(Cl)c3)c3nc(N)oc3c2)cc1 [BA-20, N-{4-[2-Amino-4-(3-chloro-phenyl)-benzooxazol-6-ylmethyl]-phenyl}-methanesulfonamide] | < 5 | < 5 |
| Cn1nccc1C(O)c1cc(-c2ccc3c(c2)OCO3)c2nc(N)sc2c1 (centres unmarked) [BA-06, (2-Amino-4-benzo[1,3]dioxol-5-yl-benzothiazol-6-yl)-(2-methyl-2H-pyrazol-3-yl)-methanol] | < 5 | < 5 |
